Test results taken from patent publication US5811452A, “Taxoid reversal agents for drug-resistance in cancer chemotherapy and pharmaceutical compositions thereof” (The Research Foundation of State University of New York, priority 1997, dated 1998).
Where two headings read alike, the source gives them in different places.

What was measured:
[1] = test system: A2780-DX5 (ovarian carcinoma resistant to doxorubicin); assay: Cytotoxicity evaluation (cell growth inhibition, SRB, 72 h); type: cell-based; conditions: read-out: IC50, growth of human tumor cell line A2780-DX5 (ovarian)
Method: (§1) Taxoids, thus synthesized, were evaluated for their cytotoxicity against human tumor cell line, A2780 (ovarian carcinoma), A2780-DX5 (ovarian carcinoma resistant to doxorubicin), MCF7 (mammary carcinoma) or MCF7-R (mammary carcinoma cells resistant to doxorubicin), after 72 hours drug exposure according to the methods of Skehon, et al., "J. Nat. Cancer Inst. 82, 1107, 1990". […] Lower numbers indicate higher potency. The data represent the means values of at least three separate experiments. Lower numbers indicate stronger cytotoxicity.
(§2) Assessment of cytotoxicity, i.e., cell growth inhibition, was determined according to the methods of Skehan, et al. as discussed in J. Nat. Cancer Inst. 82, 1107, 1990. Briefly, cells were plated between 400 and 1200 cells/well in 96 well plates and incubated at 37° C. for 15-18 h prior to drug addition to allow attachment of cells. Compounds tested were solubilized in 100% DMSO and further diluted in RPMI-1640 containing 10 mM HEPES. Each cell line was treated with 10 concentrations of compounds (5 log range). After a 72 h incubation, […] of ice-cold 50% TCA was added to each well and incubated for 1 h at 4° C. Plates were then washed 5 times with tap water to remove TCA, low-molecular-weight metabolites and serum proteins. Sulforhodamine B (SRB) (0.4%, […]) was added to each well. Following a 5 minute incubation at room temperature, plates were rinsed 5 times with 0.1% acetic acid and air dried. Bound dye was solubilized with 10 mM Tris Base (pH 10.5) for 5 min on a gyratory shaker. Optical density was measured at 570 nm.

[2] = test system: A2780 (ovarian carcinoma); assay: as above; type: cell-based; conditions: read-out: IC50, growth of human tumor cell line A2780 (ovarian)
Method: as §1, §2

[3] = test system: MCF7-R (mammary carcinoma cells resistant to doxorubicin); assay: as above; type: cell-based; conditions: read-out: IC50, growth of human tumor cell line MCF7-R (breast)
Method: as §1, §2

MCF7 (mammary carcinoma) = assay: as above; type: cell-based; conditions: read-out: IC50, growth of human tumor cell line MCF7 (breast)
Method: as §1, §2

[4] = test system: drug-resistant breast cancer cells MCF7-R; assay: MDR reversal: cytostatic activity in combination with paclitaxel or doxorubicin; type: cell-based, human; conditions: for % IC50 reduction (taxoid + Paclitaxel): taxoid 1 μM + paclitaxel
Method: ^a Treatment consists of concurrent exposure of MCF7R cells to
reversing agent (1 μM) for 72 h in vitro.

microtubules = conditions: cited from earlier work
J7 (parent) cells = conditions: cited from earlier work
P-glycoprotein mdr 1a = conditions: Taxol-resistant T1 cells; cited from earlier work
P-glycoprotein mdr 1b = conditions: cited from earlier work
[5] = 72 h exposure, doxorubicin-resistant
[6] = 72 h exposure, mean of at least three experiments
[7] = read-out: IC50 (taxoid + Paclitaxel), paclitaxel in presence of taxoid reversing agent (1 μM), 72 h
[8] = Homo sapiens, MCF7R, without reversing agent, 72 h, read-out: IC50 of anticancer drug alone
[9] = Homo sapiens, MCF7R, 72 h exposure, doxorubicin-resistant
[10] = Homo sapiens, MCF7, 72 h exposure
[11] = Homo sapiens, 72 h exposure, doxorubicin-resistant
[12] = Homo sapiens, A2780, 72 h exposure, mean of at least three experiments

Compound	IC50 [3, 5] [µM]	IC50 (MCF7 (mammary carcinoma); 72 h exposure) [µM]	% IC50 reduction (taxoid + Paclitaxel) ([4]; 72 h) [%]	IC50 [3, 9] [µM]	IC50 (MCF7 (mammary carcinoma); [10]) [µM]	other results
CC(=O)O[C@@]12CO[C@@H]1C[C@H](O)[C@@]1(C)C(=O)[C@H](O)C3=C(C)[C@@H](OC(=O)/C=C/c4ccc5ccccc5c4)C[C@@](O)([C@@H](OC(=O)c4ccccc4)[C@H]21)C3(C)C [SB-RA-2001, 13-[3-(2-Naphthyl)prop-2-enoyl]-10-deacetylbaccatin III]	5	2	–	–	–	IC50 [1, 5]: 3.8 µM; IC50 [2, 6]: 2.6 µM
7-[3-(2-Naphtyl)propanoyl]-13-acetylbaccatin III [SB-RA-30012]	> 10	> 10	99.3	–	–	IC50 [4, 7]: 0.0058 µM
COc1cccc2c1C(=O)c1c(O)c3c(c(O)c1C2=O)C[C@@](O)(C(=O)CO)C[C@@H]3O[C@H]1C[C@H](N)[C@H](O)[C@H](C)O1 [Doxorubicin, reference compound]	–	–	–	–	–	IC50 [4, 8]: 1.89 µM; IC50 ([1]; Homo sapiens, 72 h): 0.357 µM; IC50 ([2]; Homo sapiens, A2780, 72 h): 0.005 µM; IC50 ([3]; Homo sapiens, MCF7R, 72 h): 1.89 µM; IC50 (MCF7 (mammary carcinoma); Homo sapiens, MCF7, 72 h): 0.017 µM
CC(=O)O[C@H]1C(=O)[C@@]2(C)[C@H]([C@H](OC(=O)c3ccccc3)[C@]3(O)C[C@H](OC(=O)[C@H](O)[C@@H](NC(=O)c4ccccc4)c4ccccc4)C(C)=C1C3(C)C)[C@]1(OC(C)=O)CO[C@@H]1C[C@@H]2O [Paclitaxel, reference compound]	–	–	–	–	–	IC50 ([4]; Homo sapiens, MCF7R, read-out: IC50 of paclitaxel, taxoid at 1 or 3 μM (from 860 to 42~1.6)): 0.86 µM; IC50 [4, 8]: 0.86 µM; IC50 ([3]; Homo sapiens, MCF7R, 72 h): 0.85 µM; IC50 (MCF7 (mammary carcinoma); Homo sapiens, MCF7, 72 h): 0.0017 µM
CC(=O)O[C@H]1C(=O)[C@]2(C)[C@@H](OC(=O)c3ccc4ccccc4c3)C[C@H]3OC[C@@]3(OC(C)=O)[C@H]2[C@H](OC(=O)c2ccccc2)[C@]2(O)C[C@H](O)C(C)=C1C2(C)C [SB-RA-30001, 7-(Naphthalene-2-carbonyl)baccatin III]	–	–	97.5	11	5.3	–
CC(=O)O[C@H]1C(=O)[C@]2(C)[C@@H](OC(=O)/C=C/c3ccc4ccccc4c3)C[C@H]3OC[C@@]3(OC(C)=O)[C@H]2[C@H](OC(=O)c2ccccc2)[C@]2(O)C[C@H](O)C(C)=C1C2(C)C [SB-RA-30011, 7-[3-(2-naphthyl)-2-propenoyl]baccatin III]	–	–	96	8	4.7	enhancement of the tumor growth inhibitory activity of doxorubicin ([4]; 1 μM taxoid): 92%; % IC50 reduction (taxoid + Doxorubicin) ([4]; taxoid 1 μM + doxorubicin, 72 h): 92%; IC50 [1, 11]: 6.8 µM; IC50 [2, 12]: 6.3 µM
CC(=O)O[C@@]12CO[C@@H]1C[C@H](O)[C@@]1(C)C(=O)[C@H](OC(=O)/C=C/c3ccc(C(=O)c4ccccc4)cc3)C3=C(C)[C@@H](O)C[C@@](O)([C@@H](OC(=O)c4ccccc4)[C@H]21)C3(C)C [SB-RA-4001, 10-[(4-Benzoyl)cinnamoyl]-10-deacetylbaccatin III]	–	–	95	> 10	8.5	IC50 [1, 11]: 10 µM; IC50 [2, 12]: 8 µM
CC(=O)O[C@H]1C(=O)[C@]2(C)[C@@H](OC(=O)CCc3ccc4ccccc4c3)C[C@H]3OC[C@@]3(OC(C)=O)[C@H]2[C@H](OC(=O)c2ccccc2)[C@]2(O)C[C@H](O)C(C)=C1C2(C)C [SB-RA-30021, 7-[3-(2-Naphthyl)propanoyl]baccatin III]	–	–	96	5	4.9	IC50 [1, 11]: 5.3 µM; IC50 [2, 12]: 5.7 µM
CC(=O)O[C@H]1C(=O)[C@]2(C)[C@@H](OC(=O)/C=C/c3ccc(C(=O)c4ccccc4)cc3)C[C@H]3OC[C@@]3(OC(C)=O)[C@H]2[C@H](OC(=O)c2ccccc2)[C@]2(O)C[C@H](OC(C)=O)C(C)=C1C2(C)C [SB-RA-31012]	–	–	99.7	> 10	> 10	–
7,10-Bis[3-(4-benzoylphenyl)prop-2-enoyl]-10-deacetylbaccatin III [SB-RA-4102]	> 10	> 10	99.7	–	–	IC50 [4, 7]: 0.0027 µM
13-(4-Benzoylcinnamoyl)-7,10-bis(2,2,2-trichloroethoxycarbonyl)baccatin III [SB-RA-110]	> 10	> 10	–	–	–	IC50 [1, 5]: > 10 µM; IC50 [2, 6]: > 10 µM
CC(=O)O[C@H]1C(=O)[C@@]2(C)[C@H]([C@H](OC(=O)c3ccccc3)[C@]3(O)C[C@H](OC(=O)[C@H](O)[C@@H](NC(=O)CCc4ccc(C(=O)c5ccccc5)cc4)c4ccccc4)C(C)=C1C3(C)C)[C@]1(OC(C)=O)CO[C@@H]1C[C@@H]2O [SB-T-5101]	–	–	–	–	–	binding to microtubules (microtubules): binds to microtubules as expected; photoaffinity labeling of non-drug resistant cells (J7 (parent) cells): no photoaffinity labeling is observed; binding to P-glycoprotein mdr 1a (P-glycoprotein mdr 1a): binds to both mdr 1a (major) and mdr 1b (minor) in T1 cells; binding to P-glycoprotein mdr 1b (P-glycoprotein mdr 1b; Taxol-resistant T1 cells): binds to both mdr 1a (major) and mdr 1b (minor) in T1 cells; binding to P-glycoprotein mdr 1b (P-glycoprotein mdr 1b; vinblastine-resistant V1 cells): only binds to mdr 1b in V1 cells
CC(=O)O[C@H]1C(=O)[C@]2(C)[C@@H](OC(=O)/C=C/c3ccc(C(=O)c4ccccc4)cc3)C[C@H]3OC[C@@]3(OC(C)=O)[C@H]2[C@H](OC(=O)c2ccccc2)[C@]2(O)C[C@H](O)C(C)=C1C2(C)C [SB-RA-31011, 7-[4-Benzoylcinnamoyl]baccatin III]	–	–	99.8	> 10	11	–
